In US10829438B2, “Neprilysin inhibitors” (THERAVANCE BIOPHARMA R&D IP, LLC, priority 2012, dated 2020):

Each molecule was assayed against human NEP (Homo sapiens (Human), UniProt P08473) (assay: In vitro enzyme inhibition assay at human NEP (fluorogenic peptide substrate)). Conditions: not given.
Assay type: biochemical
Experimental: In Vitro Assays for the Quantitation of Inhibitor Potencies (IC50) at Human and Rat NEP, and Human ACE
The inhibitory activities of compounds at human and rat neprilysin (EC 3.4.24.11; NEP) and human angiotensin converting enzyme (ACE) were determined using in vitro assays as described below.
Recombinant human NEP and recombinant human ACE were obtained commercially (R&D Systems, Minneapolis, Minn., catalog numbers 1182-ZN and 929-ZN, respectively). The fluorogenic peptide substrate Mca-D-Arg-Arg-Leu-Dap-(Dnp)-OH (Medeiros et al. (1997) Braz. J. Med. Biol. Res. 30:1157-62; Anaspec, San Jose, Calif.) and Abz-Phe-Arg-Lys(Dnp)-Pro-OH (Araujo et al. (2000) Biochemistry 39:8519-8525; Bachem, Torrance, Calif.) were used in the NEP and ACE assays respectively.
The assays were performed in 384-well white opaque plates at 37° C. using the fluorogenic peptide substrates at a concentration of 10 μM in Assay Buffer (NEP: 50 mM HEPES, pH 7.5, 100 mM NaCl, 0.01% polyethylene glycol sorbitan monolaurate (Tween-20), 10 μM ZnSO4; ACE: 50 mM HEPES, pH 7.5, 100 mM NaCl, 0.01% Tween-20, 1 μM ZnSO4).
Test compounds were assayed over the range of concentrations from […] to 20 μM. Test compounds were added to the enzymes and incubated for 30 minute at 37° C. prior to initiating the reaction by the addition of substrate. Reactions were terminated after 20 minutes of incubation at 37° C. by the addition of glacial acetic acid to a final concentration of 3.6% (v/v).
Plates were read on a fluorometer with excitation and emission wavelengths set to 320 nm and 405 nm, respectively. Inhibition constants were obtained by nonlinear regression of the data using the equation (GraphPad Software, Inc., San Diego, Calif.): v=v0/[1+(I/K′)] where v is the reaction rate, v0 is the uninhibited reaction rate, I is the inhibitor concentration and K′ is the apparent inhibition constant.

Chain of human NEP (P08473 52-750): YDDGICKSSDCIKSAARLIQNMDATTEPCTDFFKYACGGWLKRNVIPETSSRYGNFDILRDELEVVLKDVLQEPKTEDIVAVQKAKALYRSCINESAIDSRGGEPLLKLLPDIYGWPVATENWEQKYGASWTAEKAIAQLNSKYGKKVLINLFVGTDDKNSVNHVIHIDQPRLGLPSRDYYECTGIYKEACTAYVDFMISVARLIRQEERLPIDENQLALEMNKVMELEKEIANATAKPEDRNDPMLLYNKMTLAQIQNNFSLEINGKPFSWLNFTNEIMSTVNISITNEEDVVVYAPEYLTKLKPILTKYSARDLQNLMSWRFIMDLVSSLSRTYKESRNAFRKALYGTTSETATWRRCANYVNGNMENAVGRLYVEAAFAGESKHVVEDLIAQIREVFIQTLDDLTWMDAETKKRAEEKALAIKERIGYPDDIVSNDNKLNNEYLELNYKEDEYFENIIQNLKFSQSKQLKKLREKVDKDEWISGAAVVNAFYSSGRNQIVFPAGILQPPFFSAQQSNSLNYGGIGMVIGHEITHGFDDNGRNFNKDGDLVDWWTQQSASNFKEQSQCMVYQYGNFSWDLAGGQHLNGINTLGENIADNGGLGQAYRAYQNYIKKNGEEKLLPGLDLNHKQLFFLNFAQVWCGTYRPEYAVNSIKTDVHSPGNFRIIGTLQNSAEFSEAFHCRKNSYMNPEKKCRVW

Row | SMILES | Ki
1 | O=C(N[C@H](Cc1ccc(-c2cccc(Cl)c2)cc1)C[C@@H](O)C(=O)O)c1ccc2nnn(OCc3ccccc3)c2c1 [Example 1I, (2R,4R)-4-[(3-Benzyloxy-3H-benzotriazole-5-carbonyl)amino]-5-(3′-chlorobiphenyl-4-yl)-2-hydroxypentanoic Acid] | 12.6 to 100 nM

Same assay, conditions: recombinant human NEP; 30 minute pre-incubation at 37° C.; fluorogenic substrate 10 μM

Row | SMILES | pKi value at human NEP
2 | CC(=O)OCOn1nnc2ccc(C(=O)N[C@H](Cc3ccc(-c4cccc(Cl)c4)cc3)C[C@@H](O)C(=O)O)cc21 [Example 1G, (2R,4R)-4-[(3-Acetoxymethoxy-3H-benzotriazole-5-carbonyl)amino]-5-(3′-chlorobiphenyl-4-yl)-2-hydroxypentanoic Acid] | ≥9.0
3 | CC(C)[C@@H](N)C(=O)OCOn1nnc2ccc(C(=O)N[C@H](Cc3ccc(-c4cccc(Cl)c4)cc3)C[C@@H](O)C(=O)O)cc21 [Example 1L, (2R,4R)-4-{[3-((R)-2-Amino-3-methylbutyryloxymethoxy)-3H-benzotriazole-5-carbonyl]amino}-5-(3′-chlorobiphenyl-4-yl)-2-hydroxy-pentanoic Acid] | ≥9.0
4 | O=C(N[C@H](Cc1ccc(-c2cccc(Cl)c2)cc1)C[C@@H](O)C(=O)O)c1cc(-c2ccccc2F)no1 [Example 6A, (2R,4R)-5-(3′-Chlorobiphenyl-4-yl)-4-{[3-(2-fluorophenyl)isoxazole-5-carbonyl]amino}-2-hydroxypentanoic Acid] | ≥9.0

Same assay, conditions: recombinant human NEP; 30 minute pre-incubation at 37° C.; fluorogenic substrate 10 μM; read-out: pKi value at human NEP (converted)

Row | SMILES | Ki
5 | O=C(N[C@H](Cc1ccc(-c2cccc(Cl)c2)cc1)C[C@@H](O)C(=O)O)c1ccc2nnn(O)c2c1 [Example 1A, (2R,4R)-5-(3′-Chlorobiphenyl-4-yl)-2-hydroxy-4-[(3-hydroxy-3H-benzotriazole-5-carbonyl)amino]pentanoic Acid] | ≤ 1 nM
6 | CCCC(=O)OCOn1nnc2ccc(C(=O)N[C@H](Cc3ccc(-c4cccc(Cl)c4)cc3)C[C@@H](O)C(=O)O)cc21 [Example 1M, (2R,4R)-4-[(3-Butyryloxymethoxy-3H-benzotriazole-5-carbonyl)amino]-5-(3′-chlorobiphenyl-4-yl)-2-hydroxypentanoic Acid] | 1.26 to 10 nM
7 | Cn1nc(C(=O)N[C@H](Cc2ccc(-c3cccc(Cl)c3)cc2)C[C@@H](O)C(=O)O)cc1O [Example 2A, (2R,4R)-5-(3′-Chlorobiphenyl-4-yl)-2-hydroxy-4-[(5-hydroxy-1-methyl-1H-pyrazole-3-carbonyl)amino]pentanoic Acid] | ≤ 1 nM
8 | O=C(N[C@H](Cc1ccc(-c2cccc(Cl)c2)cc1)C[C@@H](O)C(=O)O)c1cc(O)n(-c2ccccn2)n1 [Example 3A, (2R,4R)-5-(3′-Chlorobiphenyl-4-yl)-2-hydroxy-4-[(5-hydroxy-1-pyridin-2-yl-1H-pyrazole-3-carbonyl)amino]pentanoic Acid] | ≤ 1 nM
9 | CC(=O)c1cc(C(=O)N[C@H](Cc2ccc(-c3cc(Cl)ccc3F)cc2)C[C@@H](O)C(=O)O)n[nH]1 [Example 4B, (2R,4R)-4-[(5-Acetyl-1H-pyrazole-3-carbonyl)amino]-5-(5′-chloro-2′-fluorobiphenyl-4-yl)-2-hydroxypentanoic Acid] | ≤ 1 nM
10 | CC(=O)c1cc(C(=O)N[C@H](Cc2ccc(-c3cccc(Cl)c3)cc2)C[C@@H](O)C(=O)O)n[nH]1 [Example 5B, (2R,4R)-4-[(5-Acetyl-1H-pyrazole-3-carbonyl)amino]-5-(3′-chlorobiphenyl-4-l)-2-hydroxypentanoic Acid] | ≤ 1 nM
11 | COc1cc(C(=O)N[C@H](Cc2ccc(-c3cccc(Cl)c3)cc2)C[C@@H](O)C(=O)O)on1 [Example 7A, (2R,4R)-5-(3′-Chlorobiphenyl-4-yl)-2-hydroxy-4-[(3-methoxyisoxazole-5-carbonyl)amino]pentanoic Acid] | ≤ 1 nM
12 | O=C(N[C@H](Cc1ccc(-c2cc(Cl)ccc2F)cc1)C[C@@H](O)C(=O)O)c1cn(O)nn1 [Example 8A, (2R,4R)-5-(5′-Chloro-2′-fluorobiphenyl-4-yl)-2-hydroxy-4-[(1-hydroxy-1H-[1,2,3]triazole-4-carbonyl)amino]pentanoic Acid] | ≤ 1 nM
13 | O=C(N[C@H](Cc1ccc(-c2cccc(Cl)c2)cc1)C[C@@H](O)C(=O)O)c1nn(-c2ccccc2)c(=O)[nH]1 [Example 9A, (2R,4R)-5-(3′-Chlorobiphenyl-4-yl)-2-hydroxy-4-[(5-oxo-1-phenyl-4,5-dihydro-1H-[1,2,4]triazole-3-carbonyl)amino]pentanoic Acid] | ≤ 1 nM
14 | CC(=O)c1cc(C(=O)N[C@H](Cc2ccc(-c3ccccc3)cc2)C[C@@H](O)C(=O)O)[nH]n1 [formula X′, (2R,4R)-4-[(5-acetyl-2H-pyrazole-3-carbonyl)amino]-5-biphenyl-4-yl-2-hydroxypentanoic acid] | ≤ 1 nM
